Measured values from the CheMixHub viscosity set.

Assay: xn = mol fraction of the nth substance listed

CCCCC(C)=O + CCCCOC(C)=O
298.15 K, 101.33 kPa
Settings	viscosity [mPa·s]
x2 = 0.1073	0.595
x2 = 0.1861	0.601
x2 = 0.3117	0.611
x2 = 0.4115	0.62
x2 = 0.5224	0.63
x2 = 0.6318	0.64
x2 = 0.7471	0.649
x2 = 0.8669	0.663

CCCCCCCCCCCCCC + CCCCOC(C)=O
298.15 K, 101.3 kPa
Settings	viscosity [mPa·s]
x2 = 0.1284	1.825
x2 = 0.2404	1.622
x2 = 0.3362	1.467
x2 = 0.4227	1.339
x2 = 0.5018	1.23
x2 = 0.5367	1.183
x2 = 0.5715	1.142
x2 = 0.6959	0.9335
x2 = 0.8024	0.8736
x2 = 0.8903	0.7842
x2 = 0.948	0.7283

O=[N+]([O-])c1ccccc1 + CCCCOC(C)=O
viscosity [mPa·s], 101 kPa
Settings	298.15 K	308.15 K
x2 = 0.0477	1.576	1.399
x2 = 0.151	1.23	1.152
x2 = 0.2493	1.006	0.979
x2 = 0.35	0.848	0.849
x2 = 0.4488	0.743	0.755
x2 = 0.5	0.704	0.717
x2 = 0.5514	0.672	0.685
x2 = 0.6512	0.632	0.637
x2 = 0.7484	0.616	0.607
x2 = 0.8504	0.622	0.591
x2 = 0.9435	0.648	0.589

ClC(Cl)=C(Cl)Cl + CCCCOCCO
viscosity [mPa·s], 101.33 kPa
Settings	x1 = 0.1139	x1 = 0.2084	x1 = 0.3166	x1 = 0.4172	x1 = 0.5191	x1 = 0.6215	x1 = 0.7098	x1 = 0.8124	x1 = 0.9087
303.15 K	2.167	1.954	1.716	1.51	1.327	1.17	1.049	0.939	0.854
313.15 K	1.689	1.543	1.381	1.24	1.113	0.998	0.913	0.831	0.771

CCOCCOCCO + CCCN
298.15 K, 101 kPa
Settings	viscosity [mPa·s]
x1 = 0.0118	0.374
x1 = 0.0312	0.412
x1 = 0.0523	0.448
x1 = 0.0786	0.495
x1 = 0.099	0.533
x1 = 0.1259	0.59
x1 = 0.1728	0.701
x1 = 0.2037	0.789
x1 = 0.2298	0.868
x1 = 0.2646	0.986
x1 = 0.3048	1.133
x1 = 0.3392	1.272
x1 = 0.4055	1.566
x1 = 0.4419	1.745
x1 = 0.4758	1.917
x1 = 0.5112	2.092
x1 = 0.5558	2.317
x1 = 0.5903	2.488
x1 = 0.633	2.695
x1 = 0.6711	2.869
x1 = 0.7054	3.013
x1 = 0.7412	3.154
x1 = 0.7802	3.297
x1 = 0.8328	3.464
x1 = 0.8664	3.549
x1 = 0.8935	3.616
x1 = 0.9187	3.674
x1 = 0.9388	3.712
x1 = 0.9709	3.779

CCCCCCCC + CCCO
Settings	viscosity [mPa·s]
293.15 K, 101.3 kPa, x2 = 0.2756	0.602
293.15 K, 101.3 kPa, x2 = 0.4165	0.699
293.15 K, 101.3 kPa, x2 = 0.5351	0.825
293.15 K, 101.3 kPa, x2 = 0.6355	0.967
293.15 K, 101.3 kPa, x2 = 0.6822	1.039
293.15 K, 101.3 kPa, x2 = 0.7221	1.128
293.15 K, 101.3 kPa, x2 = 0.7934	1.295
293.15 K, 101.3 kPa, x2 = 0.8726	1.545
293.15 K, 101.3 kPa, x2 = 0.9243	1.746
293.15 K, 101.3 kPa, x2 = 0.9752	2.003
298.15 K, 101.3 kPa, x2 = 0.114	0.511
298.15 K, 101.3 kPa, x2 = 0.2756	0.561
298.15 K, 101.3 kPa, x2 = 0.4165	0.645
298.15 K, 101.3 kPa, x2 = 0.5351	0.752
298.15 K, 101.3 kPa, x2 = 0.6356	0.875
298.15 K, 101.3 kPa, x2 = 0.6823	0.939
298.15 K, 101.3 kPa, x2 = 0.7221	1.016
298.15 K, 101.3 kPa, x2 = 0.7934	1.162
298.15 K, 101.3 kPa, x2 = 0.8726	1.403
298.15 K, 101.3 kPa, x2 = 0.9243	1.554
298.15 K, 101.3 kPa, x2 = 0.9752	1.79
298.15 K, 101.33 kPa, x2 = 0.1018	0.535
298.15 K, 101.33 kPa, x2 = 0.1778	0.558
298.15 K, 101.33 kPa, x2 = 0.3151	0.617
298.15 K, 101.33 kPa, x2 = 0.4271	0.696
298.15 K, 101.33 kPa, x2 = 0.5512	0.809
298.15 K, 101.33 kPa, x2 = 0.6801	0.987
298.15 K, 101.33 kPa, x2 = 0.7955	1.227
298.15 K, 101.33 kPa, x2 = 0.9677	1.824
303.15 K, 101.3 kPa, x2 = 0.114	0.482
303.15 K, 101.3 kPa, x2 = 0.2756	0.522
303.15 K, 101.3 kPa, x2 = 0.4165	0.592
303.15 K, 101.3 kPa, x2 = 0.5351	0.686
303.15 K, 101.3 kPa, x2 = 0.6355	0.795
303.15 K, 101.3 kPa, x2 = 0.6822	0.857
303.15 K, 101.3 kPa, x2 = 0.7221	0.917
303.15 K, 101.3 kPa, x2 = 0.7934	1.045
303.15 K, 101.3 kPa, x2 = 0.8726	1.227
303.15 K, 101.3 kPa, x2 = 0.9243	1.383
303.15 K, 101.3 kPa, x2 = 0.9752	1.579
308.15 K, 101.3 kPa, x2 = 0.0417	0.458
308.15 K, 101.3 kPa, x2 = 0.1389	0.466
308.15 K, 101.3 kPa, x2 = 0.2682	0.497
308.15 K, 101.3 kPa, x2 = 0.3477	0.528
308.15 K, 101.3 kPa, x2 = 0.4105	0.558
308.15 K, 101.3 kPa, x2 = 0.4648	0.591
308.15 K, 101.3 kPa, x2 = 0.525	0.636
308.15 K, 101.3 kPa, x2 = 0.5911	0.694
308.15 K, 101.3 kPa, x2 = 0.6512	0.757
308.15 K, 101.3 kPa, x2 = 0.7011	0.818
308.15 K, 101.3 kPa, x2 = 0.7397	0.873
308.15 K, 101.3 kPa, x2 = 0.7864	0.95
308.15 K, 101.3 kPa, x2 = 0.8382	1.05
308.15 K, 101.3 kPa, x2 = 0.8827	1.153
308.15 K, 101.3 kPa, x2 = 0.9289	1.279

CCCCCO + CCCO
101.33 kPa
Settings	viscosity [mPa·s]
293.15 K, x2 = 0.1659	3.671
293.15 K, x2 = 0.3648	3.292
293.15 K, x2 = 0.5097	3.015
293.15 K, x2 = 0.6041	2.854
293.15 K, x2 = 0.7449	2.617
298.15 K, x2 = 0.2007	3.137
298.15 K, x2 = 0.381	2.856
298.15 K, x2 = 0.4603	2.722
298.15 K, x2 = 0.6314	2.464
298.15 K, x2 = 0.7745	2.261
298.15 K, x2 = 0.8626	2.141

CCOCCOCCO + CCCO
viscosity [mPa·s], 101 kPa
Settings	298.15 K	308.15 K	318.15 K
x1 = 0.0114	1.94	1.509	1.233
x1 = 0.0195	1.939	1.508	1.233
x1 = 0.0356	1.947	1.516	1.248
x1 = 0.0469	1.955	1.517	1.249
x1 = 0.0557	1.95	1.526	1.259
x1 = 0.0883	1.972	1.546	1.277
x1 = 0.1002	1.992	1.558	1.281
x1 = 0.136	2.017	1.588	1.308
x1 = 0.1447	2.04	1.589	1.316
x1 = 0.168	2.051	1.617	1.341
x1 = 0.245	2.184	1.701	1.409
x1 = 0.2877	2.294	1.756	1.456
x1 = 0.3493	2.473	1.868	1.567
x1 = 0.411	2.616	1.984	1.657
x1 = 0.4745	2.761	2.1	1.752
x1 = 0.536	2.889	2.191	1.822
x1 = 0.6067	3.022	2.29	1.903
x1 = 0.6682	3.138	2.378	1.978
x1 = 0.7228	3.248	2.453	2.044
x1 = 0.7879	3.383	2.55	2.118
x1 = 0.8412	3.494	2.622	2.178
x1 = 0.894	3.6	2.695	2.238
x1 = 0.9378	3.694	2.76	2.281
x1 = 0.9751	3.755	2.813	2.324
